Laboratory results taken from PubChem BioAssay (NCI).
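Each compound was tested at five concentrations against cells in 96-well plates for 48 hours. TGI is the concentration that stops growth completely.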

Legend:
Assay in all cases: NCI-60 cell line screen, 48 h
TK-10 renal = test system: TK-10 renal
KM20L2 colon = test system: KM20L2 colon
HT29 colon = test system: HT29 colon
UO-31 renal = test system: UO-31 renal
SF-295 CNS = test system: SF-295 CNS
NCI-H226 lung = test system: NCI-H226 lung
U251 CNS = test system: U251 CNS
SNB-78 CNS = test system: SNB-78 CNS
SF-268 CNS = test system: SF-268 CNS
DMS 114 small cell lung = test system: DMS 114 small cell lung
SK-MEL-2 melanoma = test system: SK-MEL-2 melanoma

Measured: TGI

NC(=O)c1ncn(C2OC(CO)C(O)C2O)c1O (centres undefined)
46.5 µM: HT29 colon
> 100 µM: all other assays above

CCCCOC(=O)NC(=O)c1cn(CCCOC(=O)CCCCCCCCC(=O)OCCCn2cc(C(=O)NC(=O)OCCCC)c(=O)n(C)c2=O)c(=O)n(C)c1=O
> 100 µM: all assays above

COC(=O)[C@@]12C3=NO[C@]1(C(=O)OC)C(O[Si](C)(C)C(C)(C)C)[C@@H](OC(C)=O)[C@@H](OC(C)=O)[C@@H]2[C@@H](OCc1ccccc1)CC3 (some centres undefined)
> 100 µM: all assays above

Cc1cc(Br)ccc1N=Nc1c(C)nn(-c2ccccc2)c1-c1ccccc1
not listed: KM20L2 colon | NCI-H226 lung
> 100 µM: all other assays above

O=C1[C@@H]2C(c3ccccc3[N+](=O)[O-])=NO[C@@H]2C(=O)N1c1ccc(Cc2ccc(N3C(=O)[C@H]4C(c5ccccc5[N+](=O)[O-])=NO[C@H]4C3=O)cc2)cc1
not listed: NCI-H226 lung | SK-MEL-2 melanoma
> 100 µM: all other assays above

CC(=O)CC(=O)Nc1ccccc1C(F)(F)F
not listed: HT29 colon | SF-295 CNS
> 100 µM: all other assays above

COc1ccc(C(=O)C(C(=O)C(=O)NCCCNC(=O)C(=O)C(C(=O)c2ccc(OC)cc2)c2ccc(OC)cc2)c2ccc(OC)cc2)cc1 (centres undefined)
> 100 µM: all assays above

O=C(N/C(=C\c1ccc(/C=C(\NC(=O)c2ccccc2)c2nc3c(O)nc(S)nc3[nH]2)cc1)c1nc2c(O)nc(S)nc2[nH]1)c1ccccc1
not listed: NCI-H226 lung
> 100 µM: all other assays above

CC1=C2C=CC(=O)C[C@@]2(C)CCC1
not listed: KM20L2 colon | NCI-H226 lung
> 100 µM: all other assays above

COc1ccc2c(c1)[n+]([O-])c(-c1ccccc1Cl)c(N)[n+]2[O-]
not listed: TK-10 renal
> 100 µM: all other assays above

CCN(CC)c1ccc(C2N3CCCCC3[C@@H]3c4[nH]c5ccccc5c4CCN23)cc1 (some centres undefined)
86.1 µM: TK-10 renal
36.3 µM: HT29 colon
> 100 µM: KM20L2 colon | UO-31 renal | SF-295 CNS | U251 CNS
69 µM: SF-268 CNS
33.1 µM: DMS 114 small cell lung
61.3 µM: SNB-78 CNS

CC1(C)C(=O)/C=C\C(=O)C(C)(C)C(=O)/C=C\C(=O)C(C)(C)C2=CC=C(O2)C(C)(C)C(=O)/C=C\C1=O
18.1 µM: NCI-H226 lung
21 µM: DMS 114 small cell lung
30.4 µM: U251 CNS
43.8 µM: SF-268 CNS
15.7 µM: SNB-78 CNS
13.4 µM: TK-10 renal
8.45 µM: HT29 colon
31.1 µM: SF-295 CNS
28.3 µM: KM20L2 colon | UO-31 renal
25.5 µM: SK-MEL-2 melanoma

CCCCCCCCCCCCCS(=O)(=O)NCC(N)=O
> 100 µM: all assays above

CCOC(=O)C1C(=O)CC(=O)C2CCCCC21 (centres undefined)
not listed: KM20L2 colon | HT29 colon | NCI-H226 lung
> 100 µM: all other assays above
